The text below walks through data of US6982082B1, “Gene therapy by cell specific targeting” (President and Fellows of Harvard College, priority 1996, dated 2006).

One assay concerns the target FKBP12 F36V (FKBP^t−) (Homo sapiens, UniProt P62942, F37V). Briefly: Scatchard analysis of binding of radiolabeled protein to FKBP^t−.
A further assay deals with FKBP (Homo sapiens, UniProt P62942). Briefly: binding to FKBP, same assay. Conditions: in words.
Assay [1] relates to signaling in cells without FKBP containing the compensatory mutation. Briefly: signaling in cells not transfected with compensatory FKBP. Format: cell-based.
Another assay concerns the target T1, CypA wild type (Homo sapiens, UniProt P62937).
T1 construct: made in house; host or cells: E. coli
Briefly: direct fluorescence binding assay, wild type CypA. Conditions: in words. The protocol:
(§1) To determine CpSar11-CsA's binding characteristics, both the unmodified CypA and the modified CypA (S99T, F113G, C115M) (CypAgtm) was overexpressed in E. coli and purified according to standard techniques. The binding constants for CpSar11-CsA for each receptor was determined with a direct fluorescence binding assay according to the procedure described in Belshaw, P. J., Schoepher, J. G., Lui, K-Q., Morrison, K. L. & Schreiber, S. L., Angew Chem. Int. Ed. Engl. 34:2129–32 (1995).
(§2) Kds were determined using a direct fluorescence binding assay as previously described in Belshaw et al., supra.

Assay [2] addresses T2, CypA (S99T, F113G, C115M) (CypAgtm) (Homo sapiens, UniProt P62937, C115M/F113G/S99T).
T2 construct: made in house; host or cells: E. coli
Briefly: direct fluorescence binding assay, modified CypA. The protocol: as §1, §2

The test system of assay [3] is NFAT signaling in Jurkat cells, CypA wild type + NFAT-SEAP. Briefly: cellular NFAT-signaling assay (NFAT-SEAP reporter), Jurkat cells coexpressing wild type CypA. Format: cell-based. An excerpt:
(§3) FIG. 1 is a graph showing the cellular assay for calcineurin-mediated NFAT-signalling.
(§4) Since it is the composite surface of Cyp-CsA that binds to and thereby inhibits the phosphatase activity of Cn and as the modifications to both the receptor and ligand were expected to be buried in the complex, it was expected that these new receptor-ligand combinations would have the ability to inhibit calcineurin (Cn) and thus NFAT mediated gene activation. This hypothesis was confirmed by using a cellular assay in which NFAT-signaling was measured on a reporter gene, as described below.
(§5) CypA and mutants were sub-cloned from pGEX based expression vectors into pBJ5, a eukaryotic expression vector containing an N-terminal FLAG epitope tag. The signaling assay was performed as previously described in Belshaw, P. J., Spencer, D. M., Crabtree, G. R. & Schreiber, S. L., Chemistry & Biology, 3:731–8 (1996). Briefly 10^7 Jurkat cells were electroporated with NFAT-SEAP reporter plasmid (1 μg) alone or in combination with a Cyp expression vector (5 μg). After 20 hours, cells were stimulated in 96 well plates with phorbol ester (PMA)(50 ng/mL) and ionomycin (1 μM), which mimics T cell activation and receptor signaling. […] Twenty-four hours later, cells were assayed for SEAP activity. The data for each transfection are presented as percent SEAP activity relative to the signal for [CpSar11-CsA]=0.

The test system of assay [4] is NFAT signaling in Jurkat cells, CypAgtm + NFAT-SEAP. Briefly: cellular NFAT-signaling assay (NFAT-SEAP reporter), Jurkat cells expressing CypAgtm. Format: cell-based.
Excerpt: as §3, §4, §5

Assay [5] relates to NFAT signaling in Jurkat cells, NFAT-SEAP alone (endogenous cyclophilins). Briefly: cellular NFAT-signaling assay, Jurkat cells transfected with NFAT-SEAP alone. Format: cell-based. The protocol:
as §3
as §5, with “activity.” for “activity. The data for each transfection are presented as percent SEAP activity relative to the signal for [CpSar11-CsA]=0.”

Assay [6] has as its system NFAT signaling in cells expressing CypA (S99T, F113A) (CypAat). Briefly: cellular NFAT-signaling assay, cells expressing CypAat. Format: cell-based. On the procedure:
as §5
Presumably this was due to formation of endogenous Cyp-MeIle11-CsA complexes that inhibited Cn.

T2 sequence (P62937 whole entry S99T/F113G/C115M): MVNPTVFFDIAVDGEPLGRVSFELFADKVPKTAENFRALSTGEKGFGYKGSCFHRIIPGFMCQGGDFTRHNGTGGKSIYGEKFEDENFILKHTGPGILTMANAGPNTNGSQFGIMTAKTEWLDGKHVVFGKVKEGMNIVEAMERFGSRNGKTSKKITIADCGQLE
Sequence of FKBP12 F36V (FKBP^t−) (P62942 whole entry F37V): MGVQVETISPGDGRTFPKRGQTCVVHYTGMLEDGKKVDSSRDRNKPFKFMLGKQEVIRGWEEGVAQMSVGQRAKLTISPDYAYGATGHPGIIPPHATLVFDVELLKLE
Sequence of FKBP (P62942 whole entry): as the sequence (P62942 whole entry F37V) above, with V37F counted along it
T1 sequence (P62937 whole entry): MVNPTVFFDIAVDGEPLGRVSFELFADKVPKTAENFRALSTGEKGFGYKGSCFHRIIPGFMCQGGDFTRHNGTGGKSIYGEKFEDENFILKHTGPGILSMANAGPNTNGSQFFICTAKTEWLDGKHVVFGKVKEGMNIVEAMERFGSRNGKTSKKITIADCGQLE

Broadly, the Kd is the free concentration of one partner at which half of the binding sites on the other are occupied at equilibrium, for simple one-to-one binding. Regarding 9-S-methoxy-FK506, the dissociation constant (Kd) on FKBP12 F36V (FKBP^t−) (Scatchard analysis) was 5 nM. At FKBP12 F36V (FKBP^t−) (in words), the “binding to FKBP12F36V” value is reported as “does bind”. The “binding to endogenous FKBP” value at FKBP is “does not bind”. Besides, the effect on signaling result in assay [1] is “no effect on signaling”.
As usually defined, the IC50 is the concentration that inhibits the measured activity by half. Turning to `C/C=C/C[C@@H](C)[C@@H](O)[C@H]1C(=O)N[C@@H](CC)C(=O)N(C)CC(=O)N(C)[C@@H](CC(C)C)C(=O)N[C@@H](C(C)C)C(=O)N(C)[C@@H](CC(C)C)C(=O)N[C@@H](C)C(=O)N[C@H](C)C(=O)N(C)[C@@H](CC(C)C)C(=O)N(C)[C@@H](CC(C)C)C(=O)N(C)[C@@H](C2CCCC2)C(=O)N1C` [CpSar11-CsA, alpha-cyclopentyl, sarcosine11-CsA], the “affinity for wild type CypA” value on CypA wild type is given as “little affinity”. For the same compound, in [2] (CypAgtm, read-out: Binding Constant Kd), the Kd turned out to be 9 nM. The “affinity for CypAgtm” value in assay [2] (in words) is “high affinity”. Moreover, the IC50 in assay [3] (CypA wild type + NFAT-SEAP, PMA and ionomycin stimulation, read-out: IC50 in Cellular NFAT-Signalling) was over 400 nM; in assay [4] (CypAgtm + NFAT-SEAP, PMA and ionomycin stimulation, read-out: IC50 in Cellular NFAT-Signalling), 25 nM. Also, the “effect on reporter gene expression” value in assay [3] (concentrations up to 400 nM, cells coexpressing a wild type cyclophilin) is reported as “little or no effect”; in assay [5] (concentrations up to 400 nM, cells expressing endogenous cyclophilins alone), “little or no effect”. Moreover, the “inhibition of NFAT signaling” value in assay [4] (cells expressing CypAgtm) was “potently inhibited NFAT signaling”.
For MeIle11-CsA, the “inhibition of NFAT signaling” value was “still inhibited NFAT signaling” in assay [5] (cells transfected with the NFAT reporter gene alone (data not shown)) and “potently inhibited NFAT signaling” in assay [6].
